In publication PMC11724075, “Small-molecule-induced ERBB4 activation to treat heart failure” (Nature Communications, 2025):
Several values for one entry are separate records, joined by “and”; a condition that tells them apart may be missing. Equal entries are not always repeated.

Columns and labels:
iCAGCre-Erbb4f/f mice = experiment: AngII-induced fibrosis in iCAGCre-Erbb4f/f mice injected with corn oil without tamoxifen; assay type: in vivo, mouse
Text: (§1) Floxed Erbb4 mice (Erbb4^f/f; C57BL/6N; 129-Erbb4tm1Fej/Mmucd, MMRRC, #010439-UCD) were crossed with CAGGCre-ER^TM mice (Jackson Laboratory, 004682) containing the Tg(CAG-cre/Esr1*)5Amc transgene that expresses Cre recombinase under the control of a chicken beta actin promoter/enhancer coupled to the human cytomegalovirus immediate-early gene enhancer, resulting in expression of tamoxifen-inducible Cre-ERT in most cell types. To induce Cre recombinase-mediated deletion of Erbb4, eleven-week-old female and male iCAGGCre-ER^TM/Erbb4^f/f mice were intraperitoneally injected with tamoxifen (Merck, T5648; 10 mg/kg; in corn oil) daily for 5 consecutive days.
Hearts were fixed in 4% PFA, paraffin-embedded, and cut into 5-µm sections. Images were acquired with an Olympus BX43 microscope (Olympus Stream Motion Software) or a CELENA® S Digital Imaging System and analyzed with ImageJ 2.14.0 software. Collagen distribution was visualized by Masson’s trichrome staining. Cardiac total fibrosis was expressed as the ratio of positively stained fibrotic area (blue) to the total area and perivascular fibrosis as the ratio of fibrotic area to vascular lumen area. Scar size was determined by measuring the scar length over the […]. Hypertrophy and vascularisation were visualized via an isolectin-B4/WGA/DAPI staining. Quantification was performed by a person blinded to the treatment protocol.
Supplementary Figure 6. Effect of AngII in male WT mice with compound NA-1 and the validation of genotype and phenotype of iCAGCre-Erbb4 f/f mice. […]
Uncropped gel is presented in Supplementary Figure 9. (c) Survival curve depicting the effects of 1000 ng/kg AngII treatment on mouse survival (ctrl = black line; 1000 ng/kg AngII = red line; n=6 male and female mice in Ctrl group and n=15 mice who received 1000 ng/kg AngII treatment). (d) Representative images of Masson’s trichrome staining of AngII-induced myocardial fibrosis in iCAGCre- […]
and n=10 male and female ice in AngII/Veh group). Scale bar = 500 µm for total fibrosis, scale bar = 50 µm for perivascular fibrosis. […]

Erbb4-null mice = experiment: Acute high-dose DOX-induced cardiotoxicity, cTnI ELISA, female Erbb4-null mice; assay type: in vivo, mouse; set-up: In vivo DOX experiment in male+female Erbb4-null mice with EF-1 (cTnI): unit not given here
Experimental: (§2) DOX (20 mg/kg; Pfizer, 4222) was administered intraperitoneally once on day 4 to induce cardiotoxicity. On day 7, mice were euthanized, serum samples were collected via the retrobulbar sinus and hearts were excised.
as §1
Serum samples were centrifuged for 15 min (1000 × g) at 4 °C and analyzed using a mouse cardiac Troponin I Type 3 ELISA kit (Novus Biologicals, NBP3–00456), according to the manufacturer’s instructions. Briefly, a 96-well microplate was coated with an anti-mouse TNNI3/cTnI primary antibody (Capture Antibody Solution). Standard solution or samples (100 μL) were added to the plate and incubated for 90 min at 37 °C. […]

[1] = tested on: mouse model of AngII-induced myocardial fibrosis; experiment: AngII-induced myocardial fibrosis mouse model, 1 week, heart mRNA by RT-qPCR; assay type: in vivo
Experimental: Four weeks after implantation, cardiac ultrasound was performed, mice were euthanized, and hearts were collected. A similar set-up was used for the 1-week study (Alzet, model 1007D) in male mice (n = 9-10 mice in every group).
RNA was extracted using Nucleospin RNA XS (Macherey-Nagel, 740902.50) according to the manufacturer’s instructions. For cDNA synthesis, total RNA was added to a mixture containing buffer with random hexamers and reverse transcriptase enzyme (TaqMan reverse transcription reagents, Applied biosystems, N8080234) after which samples were incubated for 10 min at 25 °C, 30 min at 48 °C, and 5 min at 95 °C. RT-qPCR was performed on QuantStudio 3 Real-time PCR system (Applied Biosystems) using Taqman Universal PCR Master Mix (Applied Biosystems, 4304437) and Taqman primers according to the manufacturer’s instructions. Settings were as follows: […] followed by 10 min at 95 °C, 40 cycles (45 cycles for ERBB4) of denaturation at 95 °C for 15 s, and 1 min at 60 °C. All reactions were run in duplicate, and all data were normalized against housekeeping genes glyceraldehyde-3-phosphate dehydrogenase (GAPDH), beta-actin (ACTB), or phosphoglycerate kinase 1 (PGK1). Expression levels were calculated using the comparative cycle method and expressed as fold change (FC) to appropriate controls. The following TaqMan primers were used (Thermo Fisher Scientific): GAPDH (Hs02758991_g1, Mm99999915_g1 and Rn01775763_g1), PGK1 (Hs99999906_m1), ID2 (Hs04187239_m1), BMPR1B (Hs01010965_m1), CACNA2D4 (Hs00297782_m1), DUSP2 (Hs00358879_m1), NR4A1 (Hs00374226_m1), SGK1 (Hs00178612_m1), COL1A1 (Mm00801666_g1), COL3A1 (Hs00943809_m1 and Mm00802305_g1), ERBB4 (Hs00955525_m1 and Rn00572447_m1), ACTB (Mm02619580_g1) and ANP (Mm01255747_g1).

[2] = tested on: mouse model of DOX-induced acute cardiac toxicity; experiment: Acute high-dose DOX-induced cardiotoxicity, cTnI ELISA, wild type mice; assay type: in vivo; set-up: In vivo DOX experiment in female wild type mice with EF-1 (cTnI) / In vivo DOX experiment in fmale wild type mice with EF-1 (cTnI): unit not given here
Experimental: as §2
Serum samples were centrifuged for 15 min (1000 × g) at 4 °C and analyzed using a mouse cardiac Troponin I Type 3 ELISA kit (Novus Biologicals, NBP3–00456), according to the manufacturer’s instructions. Briefly, a 96-well microplate was coated with an anti-mouse TNNI3/cTnI primary antibody (Capture Antibody Solution). Standard solution or samples (100 μL) were added to the plate and incubated for 90 min at 37 °C. A biotinylated anti-mouse TNNI3/cTnI detection antibody was added, and the plate was incubated for 1 h at 37 °C followed by 3 washes with Wash Buffer. An avidin–horseradish peroxidase conjugate (Detection Antibody Solution) was then added, and the plate was incubated once more for 30 min at 37 °C. After 3 washes with Wash Buffer, Substrate Reagent was added. Following incubation for 15 min at 37 °C, the enzymatic reaction was terminated by the addition of Stop Solution. Sample optical densities at 450 nm were converted to […] concentrations of mouse TNNI3/cTnI using a calibration curve.

[3] = AngII/EF-1, male wild type mice, EF-1 2 mg/kg/day, single animals, 2 mg/kg/day

Compound: O=C(NC1CC1)C(Sc1nc2ccccc2c(=O)n1C1CCCC1)c1ccccc1 (stereo not shown) [EF-1]
- Perivascular fibrosis male+female in vivo corn oil-treated iCAGCre-Erbb4f/f mice with EF-1 (iCAGCre-Erbb4f/f mice; AngII/EF-1, individual animals): 0.8706 and 1.275 and 0.6537 and 2.675 and 0.6132 and 2.541 and 1.901 and 0.8014
- Total fibrosis male+female in vivo corn oil-treated iCAGCre-Erbb4f/f mice with EF-1 (iCAGCre-Erbb4f/f mice; AngII/EF-1, individual animals): 3.59 and 3.39 and 3.18 and 4.74 and 4.82 and 3.84 and 3.53 and 4.29 and 4.51
- inhibitory effects on AngII-induced interstitial and perivascular fibrosis (in words) (iCAGCre-Erbb4f/f mice; iCAGCre-Erbb4f/f mice injected with corn oil without tamoxifen): preserved
- effect on DOX-induced increase in cTnI plasma levels (in words) (Erbb4-null mice; female Erbb4-null mice): did not prevent the increase in cTnI plasma levels
- In vivo DOX experiment in male+female Erbb4-null mice with EF-1 (cTnI) (Erbb4-null mice; male+female Erbb4-null mice, DOX/EF-1 group, individual animals, Fig. 6d): 3.884 and 54.574 and 87.9141 and 7.084 and 54.129 and 15.8453 and 39.5225 and 62.9332
- Col1a1 mRNA in heart, normalized FC compared to Ctrl [1, 3]: 0.89 and 1.45 and 5.23 and 1.1 and 0.7 and 1.4 and 1.83 and 0.45
- Col3a1 mRNA in heart, normalized FC compared to Ctrl [1, 3]: 0.3868 and 1.25 and 2.15 and 0.45 and 0.1877 and 2.4002 and 0.7979 and 0.9965
- Nppa mRNA in heart, normalized FC compared to Ctrl [1, 3]: 0.84 and 6.51 and 3.53 and 3.93 and 1.08 and 3.77 and 5.6 and 2.74 and 3.12
- effect on AngII-induced Col1a1 and Col3a1 mRNA expression (in words) ([1]; male wild type mice): significantly reduced
- effect on atrial natriuretic peptide (Nppa) expression (in words) ([1]; male wild type mice): significantly decreased
- In vivo DOX experiment in female wild type mice with EF-1 (cTnI) ([2]; female wild type mice, DOX/EF-1 group, individual animals, Fig. 6b): 8.09 and 3.543 and 6.879 and 1.657 and 7.427 and 2.8057 and 6.224 and 3.861
- effect on DOX-induced increase in circulating cTnI plasma levels (in words) ([2]; female wild type mice, EF-1 2 mg/kg, 7 days, DOX 20 mg/kg IP day 4): significantly prevented the DOX-induced increase in circulating cTnI plasma levels
- In vivo DOX experiment in fmale wild type mice with EF-1 (cTnI) ([2]; fmale wild type mice, DOX/EF-1 group, individual animals, Fig. 6c): 273.659 and 148.181 and 198.844 and 244.235 and 228.218 and 232.739 and 226.672 and 236.453 and 259.198
